Read-outs that look alike come from different tables or passages of the source.
What was measured:
Test in all cases: whole plant or invertebrate
Assay type in all cases: in vivo
[1] = tested on: western flower thrip (Frankliniella occidentalis Pergande)
How it was run: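 Compounds in 10% acetone/90% water with 300 ppm non-ionic surfactant were sprayed onto 5- to 7-day-old bean plants, 3 replicates. After 1 h drying, 22–27 adult thrips were added per unit. Units were held 7 days at 25° C, 45–55% RH, assessing contact and/or systemic control.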

[2] = tested on: green peach aphid (Myzus persicae Sulzer)
How it was run: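 Compounds formulated in 10% acetone/water with 300 ppm X-77 surfactant were atomized onto aphid-infested radish seedlings, with three replicates per treatment. Infestation was 30–40 aphids transferred on excised leaf pieces, covering contact and systemic exposure. Test units stayed 6 days in a growth chamber at 19–21 °C and 50–70% relative humidity.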

[3] = tested on: potato leafhopper (Empoasca fabae Harris)
How it was run: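 Bean plants (5–6 days old, one primary leaf excised) were sprayed with 1 mL of compound in 10% acetone/water with 300 ppm X-77 surfactant, 3 replicates. After drying for 1 h, each unit was infested with 5 adult leafhoppers. Units were held 6 days at 19–21 °C and 50–70% RH.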

[4] = tested on: cotton melon aphid (Aphis gossypii Glover)
How it was run: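 Cotton plants (6–7 days old) pre-infested with 30–40 aphids by cut-leaf method, sprayed with compound (ppm) in 10% acetone/90% water with 300 ppm X-77 surfactant, three replicates. Held 6 days at 19–21 °C, 50–70% RH; contact and/or systemic control assessed.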

[5] = tested on: corn planthopper (Peregrines maidis)
How it was run: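 Compounds in 10% acetone/90% water with 300 ppm X-77 surfactant sprayed (3 replications) onto 3- to 4-day-old corn plants, dried 1 h, then infested with 10–20 corn planthopper nymphs aged 18–20 days. Held 6 days at 19-21° C. and 50-70% relative humidity; contact and/or systemic control assessed.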

[6] = tested on: silverleaf whitefly (Bemisia argentifolii Bellows and Perring)
How it was run: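 Whitefly-egg-infested 12–14-day-old cotton plants sprayed with compound in 10% acetone/90% water plus 300 ppm non-ionic surfactant, in triplicate. Plants then held 13 days at 28 °C and 50–70% relative humidity before mortality assessment.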

[7] = rate 1 ppm, single compound, spray, 7 days
[8] = rate 500 ppm, single compound, spray, 7 days

With `CNC(=O)c1cc(Cl)cc(C)c1NC(=O)c1cc(Br)nn1-c1ncccc1Cl` [Compound 1, 3-bromo-N-[4-chloro-2-methyl-6-[(methylamino)carbonyl]phenyl]-1-(3-chloro-2-pyridinyl)-1H-pyrazole-5-carboxamide] the mortality at 10 ppm ([1]; Frankliniella occidentalis, 168 h, rate 10 ppm, single compound, spray, 7 days, read-out: % mortality (obs)) was 44%, the mortality at 50 ppm ([1]; Frankliniella occidentalis, 168 h, rate 50 ppm, single compound, spray, 7 days, read-out: % mortality (obs)) was 49% and the mortality at 100 ppm ([1]; Frankliniella occidentalis, 168 h, rate 100 ppm, single compound, spray, 7 days, read-out: % mortality (obs)) was 46%. For the same compound, the mortality at 8 ppm ([1]; Frankliniella occidentalis, Table 3A, Compound 1 8 ppm, read-out: % Mortality (observed)) was 3%, the mortality at 25 ppm ([1]; Frankliniella occidentalis, Table 3A, Compound 1 25 ppm, read-out: % Mortality (observed)) was 17% and the mortality at 81 ppm ([1]; Frankliniella occidentalis, Table 3A, Compound 1 81 ppm, read-out: % Mortality (observed)) was 30%. For the same compound, the mortality at 10 ppm ([2]; Myzus persicae, in Raphanus sativus, Green Peach Aphid, rate 10 ppm, read-out: % mortality (obs)) was 24%, the mortality at 20 ppm ([2]; Myzus persicae, in Raphanus sativus, Green Peach Aphid, rate 20 ppm, read-out: % mortality (obs)) was 35% and the mortality at 40 ppm ([2]; Myzus persicae, in Raphanus sativus, Green Peach Aphid, rate 40 ppm, read-out: % mortality (obs)) was 36%. The mortality at 2.1 ppm ([2]; Myzus persicae, in Raphanus sativus, Table 7A, Compound 1 2.1 ppm, read-out: % Mortality (observed)) was 5%, the mortality at 3.9 ppm ([2]; Myzus persicae, in Raphanus sativus, Table 7A, Compound 1 3.9 ppm, read-out: % Mortality (observed)) was 2% and the mortality at […] ([2]; Myzus persicae, in Raphanus sativus, Table 7A, Compound 1 7.5 ppm, read-out: % Mortality (observed)) was 6%. It also gave a mortality at 0.4 ppm ([3]; Empoasca fabae, Table 4A, Compound 1 0.4 ppm, read-out: % Mortality (observed)) of 0%, a mortality at 1.4 ppm ([3]; Empoasca fabae, Table 4A, Compound 1 1.4 ppm, read-out: % Mortality (observed)) of 0% and a mortality at 4.6 ppm ([3]; Empoasca fabae, Table 4A, Compound 1 4.6 ppm, read-out: % Mortality (observed)) of 0%. It also gave a mortality at 4 ppm ([3]; Empoasca fabae, rate 4 ppm, alone, read-out: % mortality (obs)) of 23%, a mortality at 14 ppm ([3]; Empoasca fabae, rate 14 ppm, alone, read-out: % mortality (obs)) of 37% and a mortality at 50 ppm ([3]; Empoasca fabae, rate 50 ppm, alone, read-out: % mortality (obs)) of 54%. The mortality at 0.8 ppm ([4]; Aphis gossypii, Table 6A, Compound 1 0.8 ppm, read-out: % Mortality (observed)) was 12%, the mortality at […] ([4]; Aphis gossypii, Table 6A, Compound 1 4.5 ppm, read-out: % Mortality (observed)) was 32% and the mortality at 25 ppm ([4]; Aphis gossypii, Table 6A, Compound 1 25 ppm, read-out: % Mortality (observed)) was 23%. The mortality at 4 ppm ([4]; Aphis gossypii, rate 4 ppm, read-out: % mortality (obs)) was 25%, the mortality at 20 ppm ([4]; Aphis gossypii, rate 20 ppm, read-out: % mortality (obs)) was 41% and the mortality at 100 ppm ([4]; Aphis gossypii, rate 100 ppm, read-out: % mortality (obs)) was 49%. The mortality at 20 ppm ([5]; Corn Plant Hopper, rate 20 ppm, read-out: % mortality (obs)) was 15%, the mortality at 100 ppm ([5]; Corn Plant Hopper, rate 100 ppm, read-out: % mortality (obs)) was 19% and the mortality at 500 ppm ([5]; Corn Plant Hopper, rate 500 ppm, read-out: % mortality (obs)) was 28%. For the same compound, the mortality at 5 ppm ([5]; Table 5A, Compound 1 5 ppm, read-out: % Mortality (observed)) was 6%, the mortality at 50 ppm ([5]; Table 5A, Compound 1 50 ppm, read-out: % Mortality (observed)) was 9% and the mortality at 150 ppm ([5]; Table 5A, Compound 1 150 ppm, read-out: % Mortality (observed)) was 28%. The mortality at 8 ppm ([6]; Bemisia argentifolii, in Gossypium hirsutum, Table 2A, Compound 1 8 ppm, read-out: % Mortality (observed)) was 4%, the mortality at 10 ppm ([6]; Bemisia argentifolii, in Gossypium hirsutum, Table 2A, Compound 1 10 ppm, read-out: % Mortality (observed)) was 1% and the mortality at 6 ppm ([6]; Bemisia argentifolii, in Gossypium hirsutum, Table 2B, rate 6 ppm, read-out: % mortality (obs)) was 3%. It also gave a mortality at 8 ppm ([6]; Bemisia argentifolii, in Gossypium hirsutum, Table 2B, rate 8 ppm, read-out: % mortality (obs)) of 3% and a mortality at 10 ppm ([6]; Bemisia argentifolii, in Gossypium hirsutum, Table 2B, rate 10 ppm, read-out: % mortality (obs)) of 5%.

In the case of `COC(=O)N(C(=O)N1CO[C@@]2(C(=O)OC)Cc3cc(Cl)ccc3C2=N1)c1ccc(OC(F)(F)F)cc1` [Indoxacarb], the “% mortality (obs)” value [1, 7] is reported as 50%, the “% mortality (obs)” value [1, 8] is reported as 50% and the “% mortality (obs)” value ([1]; rate 3000 ppm, single compound, spray, 7 days) is reported as 50%. The “% mortality (obs)” value ([2]; Green Peach Aphid, rate 10 ppm) was 9%, the “% mortality (obs)” value ([2]; Green Peach Aphid, rate 20 ppm) was 7% and the “% mortality (obs)” value ([2]; Green Peach Aphid, rate 30 ppm) was 8%. The “% mortality (obs)” value ([3]; rate 0.5 ppm, alone) was 33%, the “% mortality (obs)” value ([3]; rate 1 ppm, alone) was 20% and the “% mortality (obs)” value ([3]; rate 2 ppm, alone) was 27%. The “% mortality (obs)” value ([4]; rate 10 ppm) was 16%, the “% mortality (obs)” value ([4]; rate 20 ppm) was 28% and the “% mortality (obs)” value ([4]; rate 30 ppm) was 34%. The “% mortality (obs)” value ([5]; Corn Plant Hopper, rate 50 ppm) was 3%, the “% mortality (obs)” value ([5]; Corn Plant Hopper, rate 500 ppm) was 4% and the “% mortality (obs)” value ([5]; Corn Plant Hopper, rate 3000 ppm) was 18%. For the same compound, the “% mortality (obs)” value ([6]; Table 2B, rate 1 ppm) was 0%, the “% mortality (obs)” value ([6]; Table 2B, rate 3 ppm) was 0% and the “% mortality (obs)” value ([6]; Table 2B, rate 10 ppm) was 0%.

In the case of `CNC(=O)O/N=C(\SC)C(=O)N(C)C` [Oxamyl], the “% mortality (obs)” value [1, 7] is reported as 30%, the “% mortality (obs)” value ([1]; rate 50 ppm, single compound, spray, 7 days) is reported as 40% and the “% mortality (obs)” value [1, 8] is reported as 100%. For the same compound, the “% mortality (obs)” value ([2]; Green Peach Aphid, rate 40 ppm) was 8%, the “% mortality (obs)” value ([2]; Green Peach Aphid, rate 70 ppm) was 18% and the “% mortality (obs)” value ([2]; Green Peach Aphid, rate 100 ppm) was 35%. For the same compound, the “% mortality (obs)” value ([3]; rate 0.1 ppm, alone) was 20%, the “% mortality (obs)” value ([3]; rate 2 ppm, alone) was 20% and the “% mortality (obs)” value ([3]; rate 100 ppm, alone) was 100%. The “% mortality (obs)” value ([4]; rate 1 ppm) was 29%, the “% mortality (obs)” value ([4]; rate 10 ppm) was 37% and the “% mortality (obs)” value ([4]; rate 1000 ppm) was 100%. For the same compound, the “% mortality (obs)” value ([5]; Corn Plant Hopper, rate 0.08 ppm) was 2%, the “% mortality (obs)” value ([5]; Corn Plant Hopper, rate 0.16 ppm) was 5% and the “% mortality (obs)” value ([5]; Corn Plant Hopper, rate 0.2 ppm) was 6%. For the same compound, the “% mortality (obs)” value ([6]; Table 2B, rate 0.1 ppm) was 2%, the “% mortality (obs)” value ([6]; Table 2B, rate 0.3 ppm) was 0% and the “% mortality (obs)” value ([6]; Table 2B, rate 1 ppm) was 1%.

— patent publication US8937089B2, “Synergistic mixtures of anthranilamide invertebrate pest control agents” (priority 2004, dated 2015)
